Measured values: patent publication US7652013B2, “Inhibitors of stearoyl-CoA desaturase” (Hoffman-La Roche Inc., priority 2007, dated 2010)

Tests used:
SCD1 = biological target: T1, SCD1 (Mus musculus, UniProt P13516); assay: SCD assay: release of tritiated water from desaturation of 9,10-3H-stearoyl CoA, mouse liver microsomes; type: biochemical
T1 construct: Mouse liver microsomes, prepared from mice fed a high carbohydrate diet, were a source of the SCD; from tissue; host or cells: mouse liver microsomes (mice fed a high carbohydrate diet)
T1 sequence (P13516 1-355): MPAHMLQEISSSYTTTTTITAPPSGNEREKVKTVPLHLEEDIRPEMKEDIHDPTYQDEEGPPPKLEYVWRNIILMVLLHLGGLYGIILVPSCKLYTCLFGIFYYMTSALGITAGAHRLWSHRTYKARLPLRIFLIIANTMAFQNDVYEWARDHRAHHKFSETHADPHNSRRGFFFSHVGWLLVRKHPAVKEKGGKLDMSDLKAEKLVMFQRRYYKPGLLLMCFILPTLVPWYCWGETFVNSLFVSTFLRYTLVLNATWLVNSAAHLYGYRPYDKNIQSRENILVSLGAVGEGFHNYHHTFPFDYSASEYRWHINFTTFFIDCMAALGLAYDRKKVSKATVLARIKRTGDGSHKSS
From the text: Stearoyl CoA desaturase activity was monitored by a modification of the acyl carrier protein assay described by B. R. Talamo and K. Bloch in Anal. Biochem. 1968, 29, 300-304. The SCD assay monitors the release of tritiated water from the desaturation of 9,10-^3H-stearoyl CoA.
Mouse liver microsomes, prepared from mice fed a high carbohydrate diet, were a source of the SCD and cyt b5 and cyt b5 reductase, necessary accessory proteins for the coupled reaction. Reaction mixtures for compound titrations contained 50 mM Tris HCl pH 7.5, 100 mM NaCl, 0.165 mg/ml BSA, 2.4% DMSO, 1 mM NADH, 0.03% T-20, and 300 nM (9,10) ^3H-stearoyl CoA (Perkin-Elmer). Reactions were initiated upon the addition of 4 ug/ml SCD microsomes. Incubations were terminated after 25 minutes at room temperature with cold 6% TCA. After standing 10 minutes at 4 deg C., samples were centrifuged 15 minutes at 4000 rpm to pellet precipitated protein. Supernatants were added to microtiter plates containing suspensions of activated charcoal (Darco G-60, Fisher Scientific) and mixed by inversion. Plates were then centrifuged to separate ^3H—H2O product from charcoal-bound reactants. Supernatants were quantitated in a Perkin Elmer Topcount 384 after solubilization in ScintiSafe Plus 50% (Fisher Scientific).
Inhibition (%) of SCD activity by compounds was calculated according to the following formula: % Inhibition=100*[1−(CPMsample−CPMblank)/(CPMtotal−CPMblank)]

SMILES	IC50 (SCD1) [nM]	melting point
O=c1cc(N2CCN(Cc3ccc(F)cc3Cl)CC2)nc[nH]1 [Example 32, 6-[4-(2-Chloro-4-fluoro-benzyl)-piperazin-1-yl]-3H -pyrimidin-4-one]	≥ 1100	255 to 256 °C (dec.)
O=c1cc(N2CCN(Cc3cccc(F)c3)CC2)nc[nH]1 [Example 33, 6-[4-(3-Fluoro-benzyl)-piperazin-1-yl]-3H-pyrimidin-4-one]	≥ 1100	273 to 275 °C (dec.)
O=c1cc(N2CCN(Cc3ccc(Br)cc3F)CC2)nc[nH]1 [Example 34, 6-[4-(4-Bromo-2-fluoro-benzyl)-piperazin-1-yl]-3H -pyrimidin-4-one]	≥ 1100	275 to 276 °C
O=c1cc(N2CCN(Cc3cccc(Cl)c3O)CC2)nc[nH]1 [Example 45, 6-[4-(3-Chloro-2-hydroxy-benzyl)-piperazin-1-yl]-3H -pyrimidin-4-one]	≤ 1000	–
O=c1cc(N2CCN(Cc3cc(Cl)ccc3O)CC2)nc[nH]1 [Example 46, 6-[4-(5-Chloro-2-hydroxy-benzyl)-piperazin-1-yl]-3H -pyrimidin-4-one]	≤ 1000	–
Cc1cc(Cl)cc(CN2CCN(c3cc(=O)[nH]cn3)CC2)c1O [Example 47, 6-[4-(5-Chloro-2-hydroxy-3-methyl-benzyl)-piperazin-1-yl]-3H-pyrimidin-4-one]	≤ 1000	–
O=c1cc(N2CCN(Cc3cccc(Br)c3O)CC2)nc[nH]1 [Example 48, 6-[4-(3-Bromo-2-hydroxy-benzyl)-piperazin-1-yl]-3H -pyrimidin-4-one]	≤ 1000	–
O=c1cc(N2CCN(Cc3cc(Br)cc(Br)c3O)CC2)nc[nH]1 [Example 49, 6-[4-(3,5-Dibromo-2-hydroxy-benzyl)-piperazin-1-yl]-3H-pyrimidin-4-one]	≤ 1000	–
O=c1cc(N2CCN(Cc3cc(Cl)cc(Br)c3O)CC2)nc[nH]1 [Example 50, 6-[4-(3-Bromo-5-chloro-2-hydroxy-benzyl)-piperazin-1-yl]-3H-pyrimidin-4-one]	≤ 1000	–
O=c1cc(N2CCN(Cc3cc(I)ccc3O)CC2)nc[nH]1 [Example 51, 6-[4-(2-Hydroxy-5-iodo-benzyl)-piperazin-1-yl]-3H -pyrimidin-4-one]	≤ 1000	–
C=CCc1cc(CN2CCN(c3cc(=O)[nH]cn3)CC2)c(O)c(OC)c1 [Example 52, 6-[4-(5-Allyl-2-hydroxy-3-methoxy-benzyl)-piperazin-1-yl]-3H -pyrimidin-4-one]	≥ 1100	–
COc1cc(Cl)cc(CN2CCN(c3cc(=O)[nH]cn3)CC2)c1O [Example 53, 6-[4-(5-Chloro-2-hydroxy-3-methoxy-benzyl)-piperazin-1-yl]-3H -pyrimidin-4-one]	≤ 1000	–
COc1cc(I)cc(CN2CCN(c3cc(=O)[nH]cn3)CC2)c1O [Example 54, 6-[4-(2-Hydroxy-5-iodo-3-methoxy-benzyl)-piperazin-1-yl]-3H -pyrimidin-4-one]	≤ 1000	–
COc1cc([N+](=O)[O-])cc(CN2CCN(c3cc(=O)[nH]cn3)CC2)c1O [Example 55, 6-[4-(2-Hydroxy-3-methoxy-5-nitro-benzyl)-piperazin-1-yl]-3H-pyrimidin-4-one]	≥ 1100	–
